In one data set the test system is A549. Also noted: method as in PMID 24098916. To be noted: cited from earlier work.
Data set [1] relates to MDA-MB-231 cells. Description: Transwell invasion assay. Type of data set: cell-based, human. The note with it: 20 μM, 24 h, normalized for cell viability. The protocol:
Cell invasion and migration were measured using Transwell and wound healing assays, respectively. For Transwell assays, 2 × 10^4 cells were suspended in serum-free media and seeded in the top chamber of Matrigel-coated invasion inserts (Corning life science, Corning, NY). BHX was then added to the top chambers. DMEM containing 10% FBS was added to the lower chamber as a chemoattractant. After 24 h incubation, the non-invading cells on the upper surface of the membrane were wiped away, and the invading cells on the lower surface of the membrane were fixed using 95% ethanol and stained with 0.1% crystal violet. Images were captured at ×200 magnification using an inverted phase contrast microscope (BX61, Olympus, Japan). In parallel, cells were treated identically in 24-well plate. These cells were harvested, stained with 0.1% crystal violet, and counted. The number of cells that had invaded was normalized for effects on cell viability. For wound healing assays, cells were seeded at 2 × 10^5 cells/well in 24-well culture plates and allowed to reach confluence. […] Images of the scratches were recorded at ×40 magnification using a phase contrast microscope (EVOS, AMG, USA) at 0 and 20 h. The areas between leading edges were measured using Image J software, after which the rates of wound healing were calculated.

Data set [2] deals with β-catenin protein in MDA-MB-231 cells. Kind of data set: Western blotting of β-catenin. The format is cell-based, human. Here is the method: Total cell lysates were obtained by lysing the cells in SDS lysis buffer containing a protease inhibitor (PMSF), and protein concentrations were determined using a BCA protein assay kit. The proteins were separated by SDS-PAGE and transferred to PVDF membranes. The membranes were incubated with primary antibodies against Snail, Vimentin, β-catenin, and E-cadherin (1:1000 dilution) overnight at 4 °C, rinsed with TBST, and incubated with IRDye-conjugated anti-rabbit or anti-mouse IgG secondary antibodies (1:1000, LI-COR Biosciences). A β-actin-specific monoclonal antibody (1:1000 dilution) was used as a loading control. Bands were visualized with an Odyssey LI-COR infrared imaging system (LI-COR, Lincoln, NE).

Data set [3] deals with MDA-MB-231 cells. Kind of data set: cells. The note with it: Homo sapiens, read-out: IC50 of suppression of cell viability. The protocol: After incubation, MTT solution (5 mg/ml, 20 μl per well) was added and incubated for 4 h. The culture media were then replaced with dimethyl sulfoxide (DMSO, 150 μl). […] The results are expressed as mean percentage of viable cells relative to untreated cells.

Data set [4] concerns intracellular ROS in MDA-MB-231 cells. Description: Measurement of intracellular ROS (H2DCFDA). The format is cell-based, human. To be noted: 24 h, maximum potency at 20 μM. The protocol: The levels of intracellular ROS were monitored using dichlorofluorescein diacetate (H2DCFDA) as previously reported. […] The culture media were replaced with 1 ml of H2DCFDA/RPMI DMEM media and incubated at 37 °C for 30 min, with a final H2DCFDA concentration of 10 μM. The levels of ROS were then detected using flow cytometry (FACSCanto II, BD, San Jose, CA).

These results are taken from publication PMC5567253 (Scientific Reports, 2017).

Like-named read-outs stand apart in the source and are kept apart here.

Turning to `O=C(NCc1ccc(O)cc1)C1C(c2ccccc2)C(c2ccccc2)=NN1c1ccccc1` (stereo not drawn) [BHX], the cytotoxic effects entry in the data set with A549 is “exhibits cytotoxic effects”. In addition, in the data set with MDA-MB-231 cells [1], the “reduction of invasive potential” value turned out to be 48.38%. Besides, the “β-catenin expression by western blotting” value in data set [2] is reported as “suppressed β-catenin expression in a concentration-dependent manner”. The IC50 (as a rule, the concentration that inhibits the measured activity by half) stood at 28.1 µM with MDA-MB-231 cells [3] (MDA-MB-231, 24 h) and 13.8 µM with MDA-MB-231 cells [3] (MDA-MB-231, 72 h). For the same compound, in data set [4], the ROS generation result was “significantly increased in a dose-dependent manner”.
